Experimental data as given in patent publication US20250051338A1, “TYK2 DEGRADERS AND USES THEREOF” (Kymera Therapeutics, Inc., priority 2021, published 2025).

Biological target: T1, TYK2 (Homo sapiens, UniProt P29597)
Test: TYK2 degradation MSD assay in OCI-LY10 cells
Type: cell-based
Parameters: endogenous in cells; host or cells: EBV-B cells
Settings: 4 to 24 hours incubation, read-out: TYK2 MSD DC50 rating in OCI-LY10
In short: (§1)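 MSD electrochemiluminescence readout of residual TYK2 in RIPA lysates after 4–24 h compound exposure at 37° C. Dosing: 9 concentrations, 1:3 steps, top 1 to 10 μM. DC50 fitted by four-parameter inhibitor vs. response regression.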

T1 sequence (P29597 whole entry): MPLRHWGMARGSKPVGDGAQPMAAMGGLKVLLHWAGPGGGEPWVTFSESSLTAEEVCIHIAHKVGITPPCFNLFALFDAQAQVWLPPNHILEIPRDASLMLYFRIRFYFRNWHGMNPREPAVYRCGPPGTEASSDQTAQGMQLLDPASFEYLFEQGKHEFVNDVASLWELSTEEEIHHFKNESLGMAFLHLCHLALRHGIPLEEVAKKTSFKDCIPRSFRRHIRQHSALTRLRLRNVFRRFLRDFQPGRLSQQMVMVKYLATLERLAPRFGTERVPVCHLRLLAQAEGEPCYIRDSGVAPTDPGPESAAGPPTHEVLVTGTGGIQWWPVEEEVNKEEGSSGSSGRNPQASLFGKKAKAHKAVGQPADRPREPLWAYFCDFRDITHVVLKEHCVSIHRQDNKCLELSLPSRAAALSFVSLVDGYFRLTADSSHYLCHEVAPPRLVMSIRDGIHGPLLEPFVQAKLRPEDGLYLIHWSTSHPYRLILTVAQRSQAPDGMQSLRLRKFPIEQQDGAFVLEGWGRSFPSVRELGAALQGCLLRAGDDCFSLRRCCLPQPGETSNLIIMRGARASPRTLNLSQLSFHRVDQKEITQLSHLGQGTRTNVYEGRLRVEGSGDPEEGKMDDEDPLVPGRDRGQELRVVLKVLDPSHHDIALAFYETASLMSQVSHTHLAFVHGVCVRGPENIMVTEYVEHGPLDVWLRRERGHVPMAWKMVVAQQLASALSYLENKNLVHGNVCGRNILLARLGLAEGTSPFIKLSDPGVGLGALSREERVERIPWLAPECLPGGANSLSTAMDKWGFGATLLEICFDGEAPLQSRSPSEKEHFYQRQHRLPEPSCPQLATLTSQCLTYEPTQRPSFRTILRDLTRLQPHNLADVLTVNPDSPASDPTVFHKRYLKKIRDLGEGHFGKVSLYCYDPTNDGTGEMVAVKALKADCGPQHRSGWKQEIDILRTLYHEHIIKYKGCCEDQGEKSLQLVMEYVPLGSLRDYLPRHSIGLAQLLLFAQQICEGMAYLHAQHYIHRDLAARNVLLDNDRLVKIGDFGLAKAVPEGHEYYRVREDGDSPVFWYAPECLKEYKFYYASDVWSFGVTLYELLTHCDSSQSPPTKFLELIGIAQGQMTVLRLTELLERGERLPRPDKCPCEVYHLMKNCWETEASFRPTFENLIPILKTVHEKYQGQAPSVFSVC

DC50, 10 to 100 nM:
CNc1cc(N2CCOc3c(-c4ccc(CN5CCN(c6ccc(-c7ccc8c(c7)n(C)c(=O)n8C7CCC(=O)NC7=O)cc6)CC5)cn4)cccc32)nn2c(C(=O)N[C@@H]3C[C@@H]3F)cnc12 (stereo partly drawn) [Example K491]
CNc1cc(-c2ccc(-c3ccc(CN4CCN(c5ccc(-c6ccc7c(c6)n(C)c(=O)n7C6CCC(=O)NC6=O)cc5)CC4)cc3)c3nccn23)nn2c(C(=O)N[C@@H]3C[C@@H]3C)cnc12 (stereo partly drawn) [Example K492]
CNc1cc(N2CCc3c(-c4ccc(CN5CCN(c6ccc(-c7cccc8c7n(C)c(=O)n8C7CCC(=O)NC7=O)cc6)CC5)cn4)cccc32)nn2c(C(=O)N[C@@H]3C[C@@H]3F)cnc12 (stereo partly drawn) [Example K494]
CNc1cc(N2CCCc3c(-c4ccc(CC5CCC(c6ccc(-c7ccc8c(c7)n(C)c(=O)n8C7CCC(=O)NC7=O)cc6)CC5)cn4)cccc32)nn2c(C(=O)N[C@@H]3C[C@@H]3F)cnc12 (stereo partly drawn) [Example K501]

DC50, 1 to 10 nM:
CNc1cc(Nc2cccc(-c3ccc(CN4CCN(c5ccc(-c6cccc7c6n(C)c(=O)n7C6CCC(=O)NC6=O)cc5)CC4)cn3)c2OC)nn2c(C(=O)N[C@@H]3C[C@@H]3F)cnc12 (stereo partly drawn) [Example K488]
CNc1cc(-c2ccc(-c3ccc(CN4CCC(CN5CCN(c6ccc7c(c6)n(C)c(=O)n7C6CCC(=O)NC6=O)CC5)CC4)cn3)cc2)nn2c(C(=O)N[C@@H]3C[C@@H]3F)cnc12 (stereo partly drawn) [Example K493]
CNC1=CC(Nc2cccc(-c3ccc(CN4CCN(CC5CCN(C(=O)c6ccc(Cl)c(N7CCC(=O)NC7=O)c6)CC5)CC4)cn3)c2)=NC2C(C(=O)N[C@@H]3C[C@@H]3F)=CN=C12 (stereo partly drawn) [Example K496]
Cc1cc(Nc2cccc(-c3ccc(CN4CCN(c5ccc(-c6ccc7c(c6)n(C)c(=O)n7C6CCC(=O)NC6=O)cc5)CC4)cn3)c2)nn2c(C(=O)N[C@@H]3C[C@@H]3F)cnc12 (stereo partly drawn) [Example K502]

DC50, < 1 nM:
CNc1cc(Nc2cccc(CN3CCC(CN4CCN(c5ccc6c(c5)n(C)c(=O)n6C5CCC(=O)NC5=O)CC4)CC3)c2)nn2c(C(=O)N[C@@H]3C[C@@H]3F)cnc12 (stereo partly drawn) [Example K490]
CNc1cc(Nc2cccn(-c3ccc(CN4CCN(c5ccc(-c6ccc7c(c6)n(C)c(=O)n7C6CCC(=O)NC6=O)cc5)CC4)cn3)c2=O)nn2c(C(=O)N[C@@H]3C[C@@H]3F)cnc12 (stereo partly drawn) [Example K495]
CNc1cc(N2CCc3c(-c4ccc(CN5CC6(CCN(C(=O)c7ccc(Cl)c(N8CCC(=O)NC8=O)c7)CC6)C5)cn4)cccc32)nn2c(C(=O)N[C@@H]3C[C@@H]3F)cnc12 [Example K498]

DC50, > 100 nM:
CNc1cc(Nc2cccc(-c3ccc(CN4CCN(C(=O)c5ccc(Cl)c(N6CCC(=O)NC6=O)c5)CC4)cn3)c2OC)nn2c(C(=O)N[C@@H]3C[C@@H]3F)cnc12 [Example K489]
CNc1cc(Nc2cccc(-c3ccc(CN4CCN(c5ccc(-c6ccc7c(c6)n(C)c(=O)n7C6CCC(=O)NC6=O)cc5)CC4)cn3)c2)nn2c(C(=O)N[C@@H]3C[C@@H]3F)cnc12 (stereo partly drawn) [Example K499]
CNc1cc(Nc2cccc(-c3ccc(CN4CC5(CCN(c6ccc(C7CCC(=O)NC7=O)cc6)CC5)C4)cn3)c2)nn2c(C(=O)N[C@@H]3C[C@@H]3F)cnc12 (stereo partly drawn) [Example K500]
CNc1cc(Nc2cccc(N3CCC(CN4CCN(c5cccc6c(C7CCC(=O)NC7=O)cncc56)CC4)CC3)c2)nn2c(C(=O)N[C@@H]3C[C@@H]3F)cnc12 (stereo partly drawn) [Example K503]

Biological target: T1, TYK2
Test: TYK2 degradation MSD assay in human PBMC cells
Type: cell-based
Parameters: endogenous in cells; host or cells: human PBMC
Settings: 4 to 24 hours incubation, read-out: TYK2 MSD DC50 rating in human PBMC
In short: as §1

DC50, > 100 nM:
CNc1cc(Nc2cccc(-c3ccc(CN4CCN(c5ccc(-c6cccc7c6n(C)c(=O)n7C6CCC(=O)NC6=O)cc5)CC4)cn3)c2OC)nn2c(C(=O)N[C@@H]3C[C@@H]3F)cnc12 (stereo partly drawn) [Example K488]
CNc1cc(Nc2cccc(-c3ccc(CN4CCN(C(=O)c5ccc(Cl)c(N6CCC(=O)NC6=O)c5)CC4)cn3)c2OC)nn2c(C(=O)N[C@@H]3C[C@@H]3F)cnc12 [Example K489]
CNc1cc(Nc2cccc(CN3CCC(CN4CCN(c5ccc6c(c5)n(C)c(=O)n6C5CCC(=O)NC5=O)CC4)CC3)c2)nn2c(C(=O)N[C@@H]3C[C@@H]3F)cnc12 (stereo partly drawn) [Example K490]
CNc1cc(N2CCOc3c(-c4ccc(CN5CCN(c6ccc(-c7ccc8c(c7)n(C)c(=O)n8C7CCC(=O)NC7=O)cc6)CC5)cn4)cccc32)nn2c(C(=O)N[C@@H]3C[C@@H]3F)cnc12 (stereo partly drawn) [Example K491]
CNc1cc(-c2ccc(-c3ccc(CN4CCN(c5ccc(-c6ccc7c(c6)n(C)c(=O)n7C6CCC(=O)NC6=O)cc5)CC4)cc3)c3nccn23)nn2c(C(=O)N[C@@H]3C[C@@H]3C)cnc12 (stereo partly drawn) [Example K492]
CNc1cc(-c2ccc(-c3ccc(CN4CCC(CN5CCN(c6ccc7c(c6)n(C)c(=O)n7C6CCC(=O)NC6=O)CC5)CC4)cn3)cc2)nn2c(C(=O)N[C@@H]3C[C@@H]3F)cnc12 (stereo partly drawn) [Example K493]
CNc1cc(N2CCc3c(-c4ccc(CN5CCN(c6ccc(-c7cccc8c7n(C)c(=O)n8C7CCC(=O)NC7=O)cc6)CC5)cn4)cccc32)nn2c(C(=O)N[C@@H]3C[C@@H]3F)cnc12 (stereo partly drawn) [Example K494]
CNc1cc(Nc2cccn(-c3ccc(CN4CCN(c5ccc(-c6ccc7c(c6)n(C)c(=O)n7C6CCC(=O)NC6=O)cc5)CC4)cn3)c2=O)nn2c(C(=O)N[C@@H]3C[C@@H]3F)cnc12 (stereo partly drawn) [Example K495]
CNC1=CC(Nc2cccc(-c3ccc(CN4CCN(CC5CCN(C(=O)c6ccc(Cl)c(N7CCC(=O)NC7=O)c6)CC5)CC4)cn3)c2)=NC2C(C(=O)N[C@@H]3C[C@@H]3F)=CN=C12 (stereo partly drawn) [Example K496]
CNc1cc(N2CCc3c(-c4ccc(CN5CC6(CCN(C(=O)c7ccc(Cl)c(N8CCC(=O)NC8=O)c7)CC6)C5)cn4)cccc32)nn2c(C(=O)N[C@@H]3C[C@@H]3F)cnc12 [Example K498]
CNc1cc(Nc2cccc(-c3ccc(CN4CCN(c5ccc(-c6ccc7c(c6)n(C)c(=O)n7C6CCC(=O)NC6=O)cc5)CC4)cn3)c2)nn2c(C(=O)N[C@@H]3C[C@@H]3F)cnc12 (stereo partly drawn) [Example K499]
CNc1cc(Nc2cccc(-c3ccc(CN4CC5(CCN(c6ccc(C7CCC(=O)NC7=O)cc6)CC5)C4)cn3)c2)nn2c(C(=O)N[C@@H]3C[C@@H]3F)cnc12 (stereo partly drawn) [Example K500]
CNc1cc(N2CCCc3c(-c4ccc(CC5CCC(c6ccc(-c7ccc8c(c7)n(C)c(=O)n8C7CCC(=O)NC7=O)cc6)CC5)cn4)cccc32)nn2c(C(=O)N[C@@H]3C[C@@H]3F)cnc12 (stereo partly drawn) [Example K501]
Cc1cc(Nc2cccc(-c3ccc(CN4CCN(c5ccc(-c6ccc7c(c6)n(C)c(=O)n7C6CCC(=O)NC6=O)cc5)CC4)cn3)c2)nn2c(C(=O)N[C@@H]3C[C@@H]3F)cnc12 (stereo partly drawn) [Example K502]
CNc1cc(Nc2cccc(N3CCC(CN4CCN(c5cccc6c(C7CCC(=O)NC7=O)cncc56)CC4)CC3)c2)nn2c(C(=O)N[C@@H]3C[C@@H]3F)cnc12 (stereo partly drawn) [Example K503]

Biological target: T1, TYK2
Test: TYK2 degradation MSD assay in EBV-B cells
Type: cell-based
Parameters: endogenous in cells; host or cells: EBV-B cells
Settings: 4 to 24 hours incubation, read-out: TYK2 MSD DC50 rating in EBV-B
In short: as §1

DC50, > 100 nM:
CNc1cc(Nc2cccc(-c3ccc(CN4CCN(c5ccc(-c6cccc7c6n(C)c(=O)n7C6CCC(=O)NC6=O)cc5)CC4)cn3)c2OC)nn2c(C(=O)N[C@@H]3C[C@@H]3F)cnc12 (stereo partly drawn) [Example K488]
CNc1cc(Nc2cccc(-c3ccc(CN4CCN(C(=O)c5ccc(Cl)c(N6CCC(=O)NC6=O)c5)CC4)cn3)c2OC)nn2c(C(=O)N[C@@H]3C[C@@H]3F)cnc12 [Example K489]
CNc1cc(Nc2cccc(CN3CCC(CN4CCN(c5ccc6c(c5)n(C)c(=O)n6C5CCC(=O)NC5=O)CC4)CC3)c2)nn2c(C(=O)N[C@@H]3C[C@@H]3F)cnc12 (stereo partly drawn) [Example K490]
CNc1cc(N2CCOc3c(-c4ccc(CN5CCN(c6ccc(-c7ccc8c(c7)n(C)c(=O)n8C7CCC(=O)NC7=O)cc6)CC5)cn4)cccc32)nn2c(C(=O)N[C@@H]3C[C@@H]3F)cnc12 (stereo partly drawn) [Example K491]
CNc1cc(-c2ccc(-c3ccc(CN4CCN(c5ccc(-c6ccc7c(c6)n(C)c(=O)n7C6CCC(=O)NC6=O)cc5)CC4)cc3)c3nccn23)nn2c(C(=O)N[C@@H]3C[C@@H]3C)cnc12 (stereo partly drawn) [Example K492]
CNc1cc(-c2ccc(-c3ccc(CN4CCC(CN5CCN(c6ccc7c(c6)n(C)c(=O)n7C6CCC(=O)NC6=O)CC5)CC4)cn3)cc2)nn2c(C(=O)N[C@@H]3C[C@@H]3F)cnc12 (stereo partly drawn) [Example K493]
CNc1cc(N2CCc3c(-c4ccc(CN5CCN(c6ccc(-c7cccc8c7n(C)c(=O)n8C7CCC(=O)NC7=O)cc6)CC5)cn4)cccc32)nn2c(C(=O)N[C@@H]3C[C@@H]3F)cnc12 (stereo partly drawn) [Example K494]
CNc1cc(Nc2cccn(-c3ccc(CN4CCN(c5ccc(-c6ccc7c(c6)n(C)c(=O)n7C6CCC(=O)NC6=O)cc5)CC4)cn3)c2=O)nn2c(C(=O)N[C@@H]3C[C@@H]3F)cnc12 (stereo partly drawn) [Example K495]
CNC1=CC(Nc2cccc(-c3ccc(CN4CCN(CC5CCN(C(=O)c6ccc(Cl)c(N7CCC(=O)NC7=O)c6)CC5)CC4)cn3)c2)=NC2C(C(=O)N[C@@H]3C[C@@H]3F)=CN=C12 (stereo partly drawn) [Example K496]
CNc1cc(Nc2cccc(-c3ccc(CN4CCN(c5ccc(-c6ccc7c(c6)n(C)c(=O)n7C6CCC(=O)NC6=O)cc5)CC4)cn3)c2)nn2c(C(=O)N[C@@H]3C[C@@H]3F)cnc12 (stereo partly drawn) [Example K499]
CNc1cc(Nc2cccc(-c3ccc(CN4CC5(CCN(c6ccc(C7CCC(=O)NC7=O)cc6)CC5)C4)cn3)c2)nn2c(C(=O)N[C@@H]3C[C@@H]3F)cnc12 (stereo partly drawn) [Example K500]
CNc1cc(N2CCCc3c(-c4ccc(CC5CCC(c6ccc(-c7ccc8c(c7)n(C)c(=O)n8C7CCC(=O)NC7=O)cc6)CC5)cn4)cccc32)nn2c(C(=O)N[C@@H]3C[C@@H]3F)cnc12 (stereo partly drawn) [Example K501]
Cc1cc(Nc2cccc(-c3ccc(CN4CCN(c5ccc(-c6ccc7c(c6)n(C)c(=O)n7C6CCC(=O)NC6=O)cc5)CC4)cn3)c2)nn2c(C(=O)N[C@@H]3C[C@@H]3F)cnc12 (stereo partly drawn) [Example K502]
CNc1cc(Nc2cccc(N3CCC(CN4CCN(c5cccc6c(C7CCC(=O)NC7=O)cncc56)CC4)CC3)c2)nn2c(C(=O)N[C@@H]3C[C@@H]3F)cnc12 (stereo partly drawn) [Example K503]

DC50, < 1 nM:
CNc1cc(N2CCc3c(-c4ccc(CN5CC6(CCN(C(=O)c7ccc(Cl)c(N8CCC(=O)NC8=O)c7)CC6)C5)cn4)cccc32)nn2c(C(=O)N[C@@H]3C[C@@H]3F)cnc12 [Example K498]
